# Earlier results in patent US12121591B2, “Sulfur-containing ionizable lipids for the delivery of nucleic acids and other therapeutic agents” (NanoVation Therapeutics Inc., priority 2022, dated 2024).
# Conditions: delivery of siRNA, relative to KC2
compound,measurement,value
CCCCC/C=C\C/C=C\CCCCCCCCC(CCCCCCCC/C=C\C/C=C\CCCCC)OC(=O)CCCN(C)C [MC3],"siRNA required, times less than KC2",about 3 times
